Laboratory results as given in US9822136B2, “Chemical inhibitors of sebocyte function” (priority 2016, dated 2017).

Tests used:
[1] = Foaming of aqueous solution on manual shaking; assay type: physicochemical; settings: 10 mg/mL in distilled water
Procedure: The foaming seen in 7B is characteristic of a surface active agent or “surfactant” and is caused by an amphiphilic structure.
Plain water will not make bubbles because the water molecules are more strongly attracted to each other than to air. But when a surfactant is added, the surface tension of the liquid is reduced and it can wrap itself around air to form foam or soap bubbles. The foaming is enhanced when the liquid is shaken vigorously.

sebocytes [2] = assay: 3H-thymidine incorporation into sebocytes; assay type: cell-based, human; settings: Homo sapiens, 3 h; uptake into sebocytes; NS = not significant
Procedure: (§1) The activities of 1-7 and 1-8 on an immortalized sebocyte cell line were examined in the laboratory of Prof Im Myung using methods previously described [Im et al. Epigallocatechin-3-gallate suppresses IGF-I-induced lipogenesis and cytokine expression in SZ95 sebocytes. J. Invest. Dermatol. 132, 2700-8 (2012)]. Proliferation of the sebocytes was measured using the MTT assay, by examination of micrographs of the cells in culture, and ^3H-thymidine incorporation. The effects of the test agents on lipogenesis were further studied by Oil Red O staining and analysis of the lipid composition of the cells. Studies were also conducted on signaling pathways for lipogenesis [PPAR and SREBP-1, Trivedi et al. Peroxisome proliferator-activated receptors increase human sebum production. J. Invest. Dermatol. 126, 2002-9 (2006)].
(§2) 1-7 and 1-8 are sensory cooling agents on the skin and activators [agonists] of the TRPM8 ion channel protein. […] The indicators used for direct comparison were sebocyte viability measured in the MTT assay and then the ^3H-thymidine incorporation assay.

sebocytes [3] = assay: Sebocyte viability, MTT assay; assay type: cell-based, human
Procedure: as §1
The MTT assay is a colorimetric assay for cell viability. MTT [3-(4,5-dimethylthiazol-2-yl)-2-5-diphenyltetrazolium bromide], a yellow tetra-azole dye, is reduced to purple formazan in living cells by NADPH-dependent oxidoreductase enzymes. When the number of viable cells decreases the amount of enzymatic activity and purple color decreases and this can be measured with a spectrophotometer.
as §2

cloned hTRPM8 channel = biological target: T1, cloned hTRPM8 channel (Homo sapiens, UniProt Q7Z2W7); assay: TRPM8 activation, FLIPR calcium assay in CHO cells; assay type: cell-based
T1 construct: host or cells: CHO cells
Procedure: The in vitro effects of test articles were first evaluated on cloned hTRPM8 channel. […] The test cells were Chinese Hamster Ovary (CHO) cells stably transfected with human TRPM8 cDNAs. […] Substances were evaluated at 8 concentrations (0.03 to 300 μM) with n=4 replicates per determination. For Fluorescence Imaging Plate Reader ([…]″) assay, cells were plated in 384-well black wall, flat clear-bottom microtiter plates (Type: BD Biocoat Poly-D-Lysine Multiwell Cell Culture Plate) at approximately 30,000 cells per well. Cells were incubated at 37° C. overnight to reach a near confluent monolayer appropriate for use in a fluorescence assay. The test procedure was to remove the growth media and to add 40 μL of HBPS containing Fluo-8 for 30 minutes at 37° C. 10 μL of test compound, vehicle, or control solutions in HBPS were then added to each well and read for 4 min using a Fluo-8 calcium kit and the […]″ instrument (Molecular Devices, Sunnyvale, California). […] J. Neurosci.
Concentration-response data were analysed via the FLIPR Control software that is supplied with the FLIPR System (MDS-AT) and fitted to a Hill equation of the following form: Response=Base+(Max−Base)/1+(xhalf/x)^rate, where: “Base” is the response at low concentrations of test compound; “Max” is the maximum response at high concentrations; “xhalf” is the EC50 (the concentration of test compound producing half-maximal activation); and “rate” is the Hill coefficient. Nonlinear least squares fits were made assuming a simple one-to-one binding model.

sebocytes [4] = assay: IGF-1 stimulated lipogenesis in sebocytes (Oil Red O, thin-layer and gas chromatography of lipids); assay type: cell-based, human; settings: IGF-1 stimulated sebocytes
Procedure: as §1, with “132, 2700-8 (2012)].” left out, “Dermatol.” for “Dermatol. 126, 2002-9 (2006)].”
J. Invest. Dermatol. […] Oil Red 0 [Sudan Red 5B] is a diazo dye used for staining neutral triglycerides and lipids on cells.

T1 sequence (Q7Z2W7 whole entry): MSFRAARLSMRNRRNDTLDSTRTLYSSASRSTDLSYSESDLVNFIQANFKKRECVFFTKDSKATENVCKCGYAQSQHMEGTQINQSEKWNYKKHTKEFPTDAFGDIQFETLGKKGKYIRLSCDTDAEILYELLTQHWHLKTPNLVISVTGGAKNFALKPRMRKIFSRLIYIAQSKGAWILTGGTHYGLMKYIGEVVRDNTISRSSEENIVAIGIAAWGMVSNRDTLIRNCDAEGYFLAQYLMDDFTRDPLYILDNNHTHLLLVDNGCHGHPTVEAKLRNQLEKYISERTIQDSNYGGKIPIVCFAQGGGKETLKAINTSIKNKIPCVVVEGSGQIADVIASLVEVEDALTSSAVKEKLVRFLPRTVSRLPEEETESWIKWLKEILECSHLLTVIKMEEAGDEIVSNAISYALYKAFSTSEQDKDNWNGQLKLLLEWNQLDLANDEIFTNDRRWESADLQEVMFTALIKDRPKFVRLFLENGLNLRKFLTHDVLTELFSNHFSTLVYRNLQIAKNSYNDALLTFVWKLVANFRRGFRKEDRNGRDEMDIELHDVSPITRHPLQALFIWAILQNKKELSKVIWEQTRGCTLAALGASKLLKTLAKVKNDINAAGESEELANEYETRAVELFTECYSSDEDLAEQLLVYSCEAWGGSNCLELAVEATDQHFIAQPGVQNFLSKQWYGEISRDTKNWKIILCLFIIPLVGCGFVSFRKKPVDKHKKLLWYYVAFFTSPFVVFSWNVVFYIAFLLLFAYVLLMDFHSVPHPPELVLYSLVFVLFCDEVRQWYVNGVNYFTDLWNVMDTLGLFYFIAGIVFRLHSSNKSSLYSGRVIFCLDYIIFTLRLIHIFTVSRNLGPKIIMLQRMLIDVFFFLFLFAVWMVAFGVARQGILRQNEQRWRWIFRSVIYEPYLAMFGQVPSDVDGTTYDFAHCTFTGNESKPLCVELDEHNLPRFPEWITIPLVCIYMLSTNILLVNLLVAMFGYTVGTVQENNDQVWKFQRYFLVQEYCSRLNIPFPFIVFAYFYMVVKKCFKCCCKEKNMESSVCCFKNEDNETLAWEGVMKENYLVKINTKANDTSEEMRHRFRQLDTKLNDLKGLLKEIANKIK

- Appearance after manual shaking (FIG. 7B) [1]: foaming
- Activity on TRPM8 (cloned hTRPM8 channel): low potency
SMILES: CCCCCCCCCCCP(=O)(C(C)C)C(C)C [Code 1-11, 1-diisopropylphosphorylundecane]
- activity at 10 µM (sebocytes [2]): ≥ 88%
- Activity relative to 1-8 in the MTT sebocyte assay (sebocytes [3]; FIG. 4): 10,000 x
- Sebocyte cell viability as % of controls (FIG. 4) (sebocytes [3]; at 0.10 μM): strongly inhibited
- Levels / production of squalene (thin layer chromatography, FIG. 5) (sebocytes [4]): lowers
